± gives the expanded uncertainty stated by the source.

Here are results for one compound from the NIST ThermoML archive (doi:10.1021/acs.jced.8b00124).

The conditions of series [1]: Crystal; DTA.
Series [2] is described as follows: Molar enthalpy of transition or fusion. Particulars: Crystal; DSC.

As for `Cc1cc(C)nc(Nc2ccccc2)n1` [2-anilino-4,6-dimethylpyrimidine], in series [1], the Normal melting temperature amounted to 96.14 ± 1.1 °C. Further, the “Molar enthalpy of transition or fusion” value in series [2] is 6.08 ± 0.263 kcal/mol.
